The numbers were not newly measured in patent US10149481B2, “Arthropod control compositions and methods” (Tyratech, Inc., priority 2012, dated 2018), which cites them from elsewhere.

The conditions of series [1]: for mammalian toxicity: Nentwig 2003, Frances 2007b, Moore and Debboun 2007.
A further series has as its system D. variabilis. The settings on record: 2 h after application, unformulated (Kimps et al. 2011).

As for `CC1CCC(C(C)(C)O)C(O)C1` (centres unmarked) [PMD, p-menthane-3,8-diol], in series [1] (Strickman 2007), the eye irritation result is listed as “exceptionally irritating to the eyes”; the “rat oral and rabbit dermal toxicity” value was “low”. With `CCCCCCCCCC(C)=O` [2-undecanone], in the series on D. variabilis, the repellency was 74%. Consider Picaridin, for which, in series [1], the mammalian toxicity result is “low mammalian toxicity”. `CCCCN(CCC(=O)OCC)C(C)=O` [IR3535, 3-(N-Butyl-N-acetyl)-amino propionic acid ethyl ester]: in series [1], the mammalian toxicity entry was “low mammalian toxicity”.
